In patent publication US4381305A, “Ethylenediamine derivatives and pharmaceutical compositions containing same” (Simes S.p.A., priority 1980, dated 1983) one finds IC50 data, which are given here for 4 compounds.

The experiment concerns rabbit's isolated aorta. Briefly: KCl-induced contraction of the rabbit's isolated aorta (antispasmodic activity on the smooth muscles). The experiment is classed as cell-based. Conditions: Oryctolagus cuniculus, Godfraind method, read-out: ED50 (the source's name). An excerpt: The compounds of the present invention are endowed with antispasmodic activity on the smooth muscles with has been established with the test of KCl--induced contraction of the rabbit's isolated aorta according to Godfraind and coll. (Arch. Int. Pharmacodyn., 172, 235, 1968).

The structures appear in SMILES notation.

Turning to `CN(CCC(c1ccccc1)c1ccccc1)CCN(C)Cc1ccccc1` [N1,N2-dimethyl-N1-benzyl-N2-(3,3-diphenylpropyl)-ethylenediamine dimaleate], the IC50 is 4.6 µg/mL. Then `CN(CC=C(c1ccccc1)c1ccccc1)CCN(C)Cc1ccccc1` [N1,N2-dimethyl-N1-benzyl-N2-(3,3-diphenylallyl)-ethylenediamine dimaleate], with 2.1 µg/mL; and `COc1cc(CN(C)CCN(C)CCC(c2ccccc2)c2ccccc2)cc(OC)c1OC` [N1,N2-dimethyl-N1-(3,4,5-trimethoxybenzyl)-N2-(3,3-diphenylpropyl)-ethylenediamine dimaleate], with 1.3 µg/mL; and `COc1ccc(C(O)(CCN(C)CCN(C)Cc2ccccc2)c2ccc(OC)cc2)cc1` [N1,N2-dimethyl-N1-benzyl-N2-(3,3-di-p-methoxyphenyl-3-hydroxypropyl)-ethylenediamine dimaleate], with 5.2 µg/mL.
